Source: PubChem BioAssay AID1963973 (Molecular Pharmacology Branch, DTP, NCI, 2024)
pIC50: −log10 of the molar value.

System: 883617-216-R-J1-PDC tumor spheroids, viability
Experiment: Anticancer human tumor 883617-216-R-J1-PDC patient-derived bladder carcinoma cell line growth inhibition [PI3K]
Settings: spheroids with HUVEC and MSC; for pIC50: curve of first compound; for viability, T/C: stronger effect = lower value
Method in brief: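 Agents were dosed from a top concentration near clinical Cmax (otherwise 10 microM) in half-log decrements, alone or combined with PI3K inhibitors. The spheroids contain tumor cells plus endothelial (HUVEC) and MSC stroma; viability is measured.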

[1] = second compound 0.00316 µM, first compound 0.0316 µM
[2] = second compound 0.00316 µM, first compound 0.1 µM
[3] = second compound 0.01 µM, first compound 0.0316 µM
[4] = second compound 0.01 µM, first compound 0.1 µM
[5] = second compound 0.0316 µM, first compound 0.0316 µM
[6] = second compound 0.0316 µM, first compound 0.1 µM
[7] = second compound 0.1 µM, first compound 0.0316 µM
[8] = second compound 0.1 µM, first compound 0.1 µM
[9] = second compound 0.316 µM, first compound 0.0316 µM
[10] = second compound 0.316 µM, first compound 0.1 µM
[11] = second compound 1 µM, first compound 0.0316 µM
[12] = second compound 1 µM, first compound 0.1 µM
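Note: spheroids exposed to agents for 7 days before the viability read.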

Question: `CC(=O)c1c(C)c2cnc(Nc3ccc(N4CCNCC4)cn3)nc2n(C2CCCC2)c1=O` + COc1c(OCCCN2CCOCC2)ccc2c3n(c(=NC(=O)c4cnc(N)nc4)nc12)CCN3 was tested. Which pIC50 (second compound 0.00316 µM) did it give?
Answer: Its pIC50 is 7.39.

Question: What about the pIC50 (second compound 0.01 µM) of the same molecule?
Answer: Its pIC50 is 7.61.

Question: And the pIC50 (second compound 0.0316 µM)?
Answer: Its pIC50 is > 9.50.

Question: And the pIC50 (second compound 0.1 µM)?
Answer: Its pIC50 is > 9.50.

Question: What about the pIC50 (second compound 0.316 µM) of the same molecule?
Answer: Its pIC50 is > 9.50.

Question: And the pIC50 (second compound 1 µM)?
Answer: Its pIC50 is > 9.50.

Question: What about the viability, T/C (second compound 0.00316 µM, first compound 0.000316 µM) of the same molecule?
Answer: Its viability, T/C is 63.1%.

Question: What about the viability, T/C (second compound 0.00316 µM, first compound 0.001 µM) of the same molecule?
Answer: The viability, T/C was 75.6%.

Question: What about the viability, T/C (second compound 0.00316 µM, first compound 0.00316 µM) of the same molecule?
Answer: The viability, T/C was 92.5%.

Question: And the viability, T/C (second compound 0.00316 µM, first compound 0.01 µM)?
Answer: Its viability, T/C is 72.2%.

Question: And the viability, T/C [1]?
Answer: The viability, T/C was 53.3%.

Question: What about the viability, T/C [2] of the same molecule?
Answer: The viability, T/C was 39.7%.

Question: And the viability, T/C (second compound 0.01 µM, first compound 0.000316 µM)?
Answer: Its viability, T/C is 71.5%.

Question: What about the viability, T/C (second compound 0.01 µM, first compound 0.001 µM) of the same molecule?
Answer: The viability, T/C was 70.5%.

Question: What about the viability, T/C (second compound 0.01 µM, first compound 0.00316 µM) of the same molecule?
Answer: The viability, T/C was 61.2%.

Question: What about the viability, T/C (second compound 0.01 µM, first compound 0.01 µM) of the same molecule?
Answer: The viability, T/C was 71.6%.

Question: What about the viability, T/C [3] of the same molecule?
Answer: Its viability, T/C is 44.9%.

Question: What about the viability, T/C [4] of the same molecule?
Answer: The viability, T/C was 26.4%.

Question: What about the viability, T/C (second compound 0.0316 µM, first compound 0.000316 µM) of the same molecule?
Answer: The viability, T/C was 40.5%.

Question: And the viability, T/C (second compound 0.0316 µM, first compound 0.001 µM)?
Answer: The viability, T/C was 37.6%.

Question: What about the viability, T/C (second compound 0.0316 µM, first compound 0.00316 µM) of the same molecule?
Answer: The viability, T/C was 30.2%.

Question: And the viability, T/C (second compound 0.0316 µM, first compound 0.01 µM)?
Answer: The viability, T/C was 27.5%.

Question: And the viability, T/C [5]?
Answer: The viability, T/C was 27.1%.

Question: What about the viability, T/C [6] of the same molecule?
Answer: Its viability, T/C is 21.6%.

Question: What about the viability, T/C (second compound 0.1 µM, first compound 0.000316 µM) of the same molecule?
Answer: The viability, T/C was 16.1%.

Question: What about the viability, T/C (second compound 0.1 µM, first compound 0.001 µM) of the same molecule?
Answer: The viability, T/C was 12.2%.

Question: What about the viability, T/C (second compound 0.1 µM, first compound 0.00316 µM) of the same molecule?
Answer: Its viability, T/C is 11.1%.

Question: And the viability, T/C (second compound 0.1 µM, first compound 0.01 µM)?
Answer: Its viability, T/C is 13%.

Question: What about the viability, T/C [7] of the same molecule?
Answer: Its viability, T/C is 11.2%.

Question: And the viability, T/C [8]?
Answer: The viability, T/C was 11.8%.

Question: And the viability, T/C (second compound 0.316 µM, first compound 0.000316 µM)?
Answer: The viability, T/C was 4.61%.

Question: And the viability, T/C (second compound 0.316 µM, first compound 0.001 µM)?
Answer: Its viability, T/C is 5.01%.

Question: And the viability, T/C (second compound 0.316 µM, first compound 0.00316 µM)?
Answer: Its viability, T/C is 4.74%.

Question: What about the viability, T/C (second compound 0.316 µM, first compound 0.01 µM) of the same molecule?
Answer: Its viability, T/C is 3.95%.

Question: What about the viability, T/C [9] of the same molecule?
Answer: Its viability, T/C is 4.31%.

Question: What about the viability, T/C [10] of the same molecule?
Answer: Its viability, T/C is 3.85%.

Question: What about the viability, T/C (second compound 1 µM, first compound 0.000316 µM) of the same molecule?
Answer: The viability, T/C was 3.24%.

Question: What about the viability, T/C (second compound 1 µM, first compound 0.001 µM) of the same molecule?
Answer: Its viability, T/C is 2.85%.

Question: And the viability, T/C (second compound 1 µM, first compound 0.00316 µM)?
Answer: Its viability, T/C is 2.99%.

Question: And the viability, T/C (second compound 1 µM, first compound 0.01 µM)?
Answer: Its viability, T/C is 3.68%.

Question: And the viability, T/C [11]?
Answer: The viability, T/C was 2.94%.

Question: And the viability, T/C [12]?
Answer: The viability, T/C was 2.98%.

Question: `CNC(=O)c1ccc(N2C(=S)N(c3ccc(C#N)c(C(F)(F)F)c3)C(=O)C2(C)C)cc1F` + COc1c(OCCCN2CCOCC2)ccc2c3n(c(=NC(=O)c4cnc(N)nc4)nc12)CCN3 was tested. Which pIC50 (second compound 0.00316 µM) did it give?
Answer: Its pIC50 is < 5.00.

Question: What about the pIC50 (second compound 0.01 µM) of the same molecule?
Answer: Its pIC50 is < 5.00.

Question: And the pIC50 (second compound 0.0316 µM)?
Answer: The pIC50 was > 7.50.

Question: What about the pIC50 (second compound 0.1 µM) of the same molecule?
Answer: Its pIC50 is > 7.50.

Question: What about the pIC50 (second compound 0.316 µM) of the same molecule?
Answer: Its pIC50 is > 7.50.

Question: And the pIC50 (second compound 1 µM)?
Answer: Its pIC50 is > 7.50.

Question: And the viability, T/C [1]?
Answer: The viability, T/C was 72.6%.

Question: And the viability, T/C [2]?
Answer: Its viability, T/C is 79.7%.

Question: What about the viability, T/C (second compound 0.00316 µM, first compound 0.316 µM) of the same molecule?
Answer: Its viability, T/C is 85.4%.

Question: And the viability, T/C (second compound 0.00316 µM, first compound 1 µM)?
Answer: Its viability, T/C is 87.3%.

Question: And the viability, T/C (second compound 0.00316 µM, first compound 3.16 µM)?
Answer: Its viability, T/C is 98.2%.

Question: And the viability, T/C (second compound 0.00316 µM, first compound 10 µM)?
Answer: The viability, T/C was 71.9%.

Question: What about the viability, T/C [3] of the same molecule?
Answer: The viability, T/C was 61.9%.

Question: And the viability, T/C [4]?
Answer: Its viability, T/C is 68.4%.

Question: What about the viability, T/C (second compound 0.01 µM, first compound 0.316 µM) of the same molecule?
Answer: The viability, T/C was 64.3%.

Question: What about the viability, T/C (second compound 0.01 µM, first compound 1 µM) of the same molecule?
Answer: The viability, T/C was 63.4%.

Question: What about the viability, T/C (second compound 0.01 µM, first compound 3.16 µM) of the same molecule?
Answer: Its viability, T/C is 73.6%.

Question: And the viability, T/C (second compound 0.01 µM, first compound 10 µM)?
Answer: Its viability, T/C is 65.6%.

Question: And the viability, T/C [5]?
Answer: The viability, T/C was 29.5%.

Question: What about the viability, T/C [6] of the same molecule?
Answer: The viability, T/C was 39%.

Question: And the viability, T/C (second compound 0.0316 µM, first compound 0.316 µM)?
Answer: The viability, T/C was 47.5%.

Question: What about the viability, T/C (second compound 0.0316 µM, first compound 1 µM) of the same molecule?
Answer: The viability, T/C was 37.7%.

Question: And the viability, T/C (second compound 0.0316 µM, first compound 3.16 µM)?
Answer: The viability, T/C was 35.9%.

Question: And the viability, T/C (second compound 0.0316 µM, first compound 10 µM)?
Answer: Its viability, T/C is 29%.

Question: What about the viability, T/C [7] of the same molecule?
Answer: Its viability, T/C is 16.3%.

Question: What about the viability, T/C [8] of the same molecule?
Answer: The viability, T/C was 15.1%.

Question: What about the viability, T/C (second compound 0.1 µM, first compound 0.316 µM) of the same molecule?
Answer: Its viability, T/C is 19%.

Question: And the viability, T/C (second compound 0.1 µM, first compound 1 µM)?
Answer: Its viability, T/C is 17.3%.

Question: And the viability, T/C (second compound 0.1 µM, first compound 3.16 µM)?
Answer: The viability, T/C was 16.9%.

Question: What about the viability, T/C (second compound 0.1 µM, first compound 10 µM) of the same molecule?
Answer: Its viability, T/C is 11.9%.

Question: And the viability, T/C [9]?
Answer: Its viability, T/C is 10.4%.

Question: And the viability, T/C [10]?
Answer: The viability, T/C was 5.99%.

Question: And the viability, T/C (second compound 0.316 µM, first compound 0.316 µM)?
Answer: Its viability, T/C is 4.55%.

Question: And the viability, T/C (second compound 0.316 µM, first compound 1 µM)?
Answer: Its viability, T/C is 5.36%.

Question: And the viability, T/C (second compound 0.316 µM, first compound 3.16 µM)?
Answer: The viability, T/C was 5.23%.

Question: And the viability, T/C (second compound 0.316 µM, first compound 10 µM)?
Answer: The viability, T/C was 4.37%.

Question: And the viability, T/C [11]?
Answer: The viability, T/C was 3.25%.

Question: What about the viability, T/C [12] of the same molecule?
Answer: Its viability, T/C is 3.07%.

Question: And the viability, T/C (second compound 1 µM, first compound 0.316 µM)?
Answer: Its viability, T/C is 2.92%.

Question: What about the viability, T/C (second compound 1 µM, first compound 1 µM) of the same molecule?
Answer: Its viability, T/C is 3.17%.

Question: What about the viability, T/C (second compound 1 µM, first compound 3.16 µM) of the same molecule?
Answer: Its viability, T/C is 4.14%.

Question: And the viability, T/C (second compound 1 µM, first compound 10 µM)?
Answer: The viability, T/C was 3.08%.
